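Test compounds were applied to cells in 96-well plates for 48 hours at 5 doses. Here, GI50 denotes the concentration required for 50% inhibition of growth.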 Active and inactive are the calls of the source. Cut-off read from the data, not from the text of the source: active = GI50 up to about 1.1 µM and inactive = higher.
How the values were obtained:
Test in all cases: DTP human tumour cell line panel, 48 h
A549 = tested on: A549
CAKI-1 = tested on: CAKI-1
COLO 205 = tested on: COLO 205
HCC 2998 = tested on: HCC 2998
HCT-116 = tested on: HCT-116
HL-60 = tested on: HL-60
LOX IMVI = tested on: LOX IMVI
LXFL 529 = tested on: LXFL 529
M14 = tested on: M14
Malme-3M = tested on: Malme-3M
NCI-H23 = tested on: NCI-H23
NCI-H522 = tested on: NCI-H522
SK-MEL-5 = tested on: SK-MEL-5
SK-OV-3 = tested on: SK-OV-3
SNB-75 = tested on: SNB-75
SW-620 = tested on: SW-620
U-251 = tested on: U-251
UACC-62 = tested on: UACC-62
SK-MEL-2 = tested on: SK-MEL-2
T47D = tested on: T47D

Structure (SMILES)	GI50 (A549)	GI50 (CAKI-1)	GI50 (COLO 205)	GI50 (HCC 2998)	GI50 (HCT-116)	GI50 (HL-60)	GI50 (LOX IMVI)	GI50 (LXFL 529)	GI50 (M14)	GI50 (Malme-3M)	GI50 (NCI-H23)	GI50 (NCI-H522)	GI50 (SK-MEL-5)	GI50 (SK-OV-3)	GI50 (SNB-75)	GI50 (SW-620)	GI50 (U-251)	GI50 (UACC-62)	GI50 (SK-MEL-2)	GI50 (T47D)
CC1(C)C(=NN=C(N)N)C(C)(C)C1=NN=C(N)N	> 100 µM (inactive)	> 100 µM (inactive)	> 100 µM (inactive)	> 100 µM (inactive)	> 100 µM (inactive)	> 100 µM (inactive)	> 100 µM (inactive)	> 100 µM (inactive)	> 100 µM (inactive)	> 100 µM (inactive)	> 100 µM (inactive)	> 100 µM (inactive)	> 100 µM (inactive)	> 100 µM (inactive)	> 100 µM (inactive)	> 100 µM (inactive)	> 100 µM (inactive)	> 100 µM (inactive)	–	–
COc1ccc2c3c1C(=O)CCC3CO2 (stereo not drawn)	> 100 µM (inactive)	> 100 µM (inactive)	> 100 µM (inactive)	> 100 µM (inactive)	> 100 µM (inactive)	> 100 µM (inactive)	> 100 µM (inactive)	> 100 µM (inactive)	> 100 µM (inactive)	> 100 µM (inactive)	> 100 µM (inactive)	> 100 µM (inactive)	> 100 µM (inactive)	> 100 µM (inactive)	–	> 100 µM (inactive)	> 100 µM (inactive)	> 100 µM (inactive)	> 100 µM (inactive)	–
CCOC(=O)C1S/C(=N\c2ccc(Cl)c(Cl)c2)N=C1C (stereo not drawn)	28.4 µM (inactive)	35.1 µM (inactive)	29 µM (inactive)	> 100 µM (inactive)	–	20.4 µM (inactive)	23.4 µM (inactive)	34.4 µM (inactive)	34.6 µM (inactive)	51.6 µM (inactive)	36.7 µM (inactive)	24.7 µM (inactive)	–	53.8 µM (inactive)	29.9 µM (inactive)	38 µM (inactive)	48.3 µM (inactive)	96.8 µM (inactive)	95.1 µM (inactive)	–
CC#C[P+](c1ccccc1)(c1ccccc1)c1ccccc1	7.91 µM (inactive)	3.24 µM (inactive)	1.35 µM (inactive)	3.52 µM (inactive)	2.56 µM (inactive)	3.71 µM (inactive)	2 µM (inactive)	1.32 µM (inactive)	1.88 µM (inactive)	10.4 µM (inactive)	2.06 µM (inactive)	0.284 µM (active)	2.2 µM (inactive)	14.6 µM (inactive)	2.43 µM (inactive)	–	0.861 µM (active)	3.72 µM (inactive)	1.56 µM (inactive)	–
COC(OC)c1cccc2c1C1(O)CCC3(CC21)OCCCCO3 (stereo not drawn)	> 100 µM (inactive)	> 100 µM (inactive)	> 100 µM (inactive)	> 100 µM (inactive)	> 100 µM (inactive)	> 100 µM (inactive)	> 100 µM (inactive)	> 100 µM (inactive)	> 100 µM (inactive)	> 100 µM (inactive)	> 100 µM (inactive)	> 100 µM (inactive)	> 100 µM (inactive)	> 100 µM (inactive)	> 100 µM (inactive)	–	> 100 µM (inactive)	> 100 µM (inactive)	> 100 µM (inactive)	–
O=C(c1ccccc1)N1CCc2c([nH]c3ccccc23)C1	50.4 µM (inactive)	28.4 µM (inactive)	19.2 µM (inactive)	94.4 µM (inactive)	38 µM (inactive)	15.7 µM (inactive)	88.1 µM (inactive)	36.4 µM (inactive)	34 µM (inactive)	35.8 µM (inactive)	33.4 µM (inactive)	22 µM (inactive)	20.9 µM (inactive)	85.3 µM (inactive)	66.8 µM (inactive)	37.5 µM (inactive)	16.4 µM (inactive)	51.4 µM (inactive)	27.1 µM (inactive)	–
C=C(CN(C)C)C(=O)c1ccc(C(=O)C(=C)CN(C)C)cc1	35.2 µM (inactive)	> 100 µM (inactive)	> 100 µM (inactive)	> 100 µM (inactive)	> 100 µM (inactive)	> 100 µM (inactive)	> 100 µM (inactive)	> 100 µM (inactive)	> 100 µM (inactive)	> 100 µM (inactive)	> 100 µM (inactive)	> 100 µM (inactive)	> 100 µM (inactive)	> 100 µM (inactive)	> 100 µM (inactive)	> 100 µM (inactive)	> 100 µM (inactive)	> 100 µM (inactive)	> 100 µM (inactive)	–
O=C(O)CCNS(=O)(=O)c1ccc([N+](=O)[O-])cc1	> 100 µM (inactive)	> 100 µM (inactive)	> 100 µM (inactive)	> 100 µM (inactive)	–	> 100 µM (inactive)	> 100 µM (inactive)	> 100 µM (inactive)	> 100 µM (inactive)	> 100 µM (inactive)	> 100 µM (inactive)	> 100 µM (inactive)	> 100 µM (inactive)	> 100 µM (inactive)	> 100 µM (inactive)	> 100 µM (inactive)	> 100 µM (inactive)	> 100 µM (inactive)	> 100 µM (inactive)	–
Cc1ccc(S(=O)(=O)c2c3nc4ccccc4nc3n3c2[nH]c2ccccc23)cc1	> 100 µM (inactive)	> 100 µM (inactive)	> 100 µM (inactive)	> 100 µM (inactive)	> 100 µM (inactive)	> 100 µM (inactive)	> 100 µM (inactive)	> 100 µM (inactive)	> 100 µM (inactive)	> 100 µM (inactive)	> 100 µM (inactive)	> 100 µM (inactive)	> 100 µM (inactive)	> 100 µM (inactive)	> 100 µM (inactive)	> 100 µM (inactive)	> 100 µM (inactive)	25.7 µM (inactive)	> 100 µM (inactive)	–
O=C(O)CSc1nnc(Cc2ccccc2)[nH]1	> 100 µM (inactive)	> 100 µM (inactive)	–	> 100 µM (inactive)	> 100 µM (inactive)	> 100 µM (inactive)	> 100 µM (inactive)	> 100 µM (inactive)	> 100 µM (inactive)	> 100 µM (inactive)	> 100 µM (inactive)	> 100 µM (inactive)	> 100 µM (inactive)	> 100 µM (inactive)	–	> 100 µM (inactive)	> 100 µM (inactive)	> 100 µM (inactive)	> 100 µM (inactive)	–
CCn1c2c(n(CC)c1=S)-c1c(n(CC)c(=S)n1CC)SSSS2	36.7 µM (inactive)	17.9 µM (inactive)	5.53 µM (inactive)	25.4 µM (inactive)	3.4 µM (inactive)	2.9 µM (inactive)	9.79 µM (inactive)	2.1 µM (inactive)	6.35 µM (inactive)	2.83 µM (inactive)	8.75 µM (inactive)	1.88 µM (inactive)	27 µM (inactive)	> 67.3 µM (inactive)	1.91 µM (inactive)	1.67 µM (inactive)	22.2 µM (inactive)	10.7 µM (inactive)	16.6 µM (inactive)	1.63 µM (inactive)
Nc1ccc(C(=O)NN2C(=O)C(Cl)C2c2ccccc2Cl)cc1 (stereo not drawn)	14.3 µM (inactive)	13.9 µM (inactive)	14.6 µM (inactive)	16.5 µM (inactive)	4.21 µM (inactive)	1.02 µM (active)	1.41 µM (inactive)	2.06 µM (inactive)	13.1 µM (inactive)	17.6 µM (inactive)	12.3 µM (inactive)	1.71 µM (inactive)	16 µM (inactive)	16.1 µM (inactive)	16.5 µM (inactive)	3.46 µM (inactive)	12.3 µM (inactive)	8.69 µM (inactive)	11.3 µM (inactive)	–
CNS(=O)(=O)NN(C)S(=O)(=O)c1ccc(OC)cc1	> 100 µM (inactive)	> 100 µM (inactive)	> 100 µM (inactive)	> 100 µM (inactive)	> 100 µM (inactive)	> 100 µM (inactive)	91.8 µM (inactive)	> 100 µM (inactive)	> 100 µM (inactive)	> 100 µM (inactive)	> 100 µM (inactive)	> 100 µM (inactive)	> 100 µM (inactive)	–	> 100 µM (inactive)	> 100 µM (inactive)	> 100 µM (inactive)	> 100 µM (inactive)	> 100 µM (inactive)	–

From ChEMBL document CHEMBL1201862, “PubChem BioAssay data set” (2004)
